Data: patent US5089529A, “Butanol derivatives” (Nippon Shinyaku Co., Ltd., priority 1983, dated 1992)
Read-outs that look alike come from different tables or passages of the source.

Legend:
[1] = test system: Arrhythmia in Mice Caused by Aconitine; assay: Action against arrhythmia in mice caused by aconitine; type: in vivo, ddY-Male mice; conditions: Mus musculus
Experimental: A method by Nwangwu, et al (P.U. Nwangwu, T.L. Holcslow and S.J. Stohs: Arch. int. Pharmacodyn. 229, 219-226, 1977) was partly modified and the experiment was carried out. ddY-Male mice weighing 25 to 30 grams were used. One group was composed of four mice.
Arrhythmia was induced by infusion of aconitine at a concentration of 5 μg/ml in saline into a tail vein at the rate of 0.25 ml/min using a perfusion pump in mice anesthetized with Nembutal. Test drugs were administered orally or intraperitoneally 30 minutes prior to the start of infusion of aconitine. Incidentally, lidocaine was given intraperitoneally 15 minutes prior to administration of aconitine.
The status of arrhythmia was judged by an electrocardiographic recording (lead II) and, when the onset time of the arrhythmia was delayed more than "average time of untreated group plus 2SD", it was judged to have antiarrhythmic action. Then ED50 values were calculated by Weil's method from the effective rate at each dosage level.

[2] = test system: Arrhythmia in Dogs Caused by Digitalis; assay: Arrhythmia in dogs caused by digitalis (digoxin); type: in vivo, Beagle dogs; conditions: anesthetized dogs
Source text: Beagle dogs weighing 10 to 14 kg were used. […] The arrhythmia was judged by an electrocardiographic recording (lead II) and, when there was an appearance of descending or ascending big QRS complex, it was judged that ventricular arrhythmia appeared.

SMILES	ED50 ([1]; ip, read-out: ED50, i.p.) [mg/kg]	Duration of Action ([2]; 2 mg/kg intravenous) [s]	Efficacy Ratio ([2]; 2 mg/kg intravenous) [%]	ED50 ([1]; po, read-out: ED50, p.o.) [mg/kg]	Duration of Action ([2]; 1 mg/kg intravenous) [s]	Efficacy Ratio ([2]; 1 mg/kg intravenous) [%]
CCN(CC)CC(=O)Nc1c(C)cccc1C [Lidocaine, reference compound]	35.4	350	50.0	–	–	–
CC(C)CNCCCC(O)(c1ccccc1)c1ccccc1 [Example 10, 1,1-Diphenyl-4-isobutylamino-1-butanol]	11.5	500	58.7	20.3	–	–
CC(C)CN(CCCC(O)(c1ccccc1)c1ccccc1)CC(C)C [Example 1, 4-Diisobutylamino-1,1-diphenyl-1-butanol]	14.9	515	62.5	17.7	400	50.0
CC(C)N(CCC(C(N)=O)(c1ccccc1)c1ccccn1)C(C)C (centres unmarked) [Disopyramide, reference compound]	12.5	365	57.1	29.7	–	–
